Assays:
Assay type in all cases: functional
Conditions in all cases: read-out: GI
SW-620 = test: Growth inhibition of human SW-620 cells at 10 uM incubated for 48 hrs by sulforhodamine B assay relative to control
NCI/ADR-RES = test: Growth inhibition of human NCI/ADR-RES cells at 10 uM incubated for 48 hrs by sulforhodamine B assay relative to control
BT-549 = test: Growth inhibition of human BT-549 cells at 10 uM incubated for 48 hrs by sulforhodamine B assay relative to control
KM12 = test: Growth inhibition of human KM12 cells at 10 uM incubated for 48 hrs by sulforhodamine B assay relative to control
K562 = test: Growth inhibition of human K562 cells at 10 uM incubated for 48 hrs by sulforhodamine B assay relative to control
TK-10 = test: Growth inhibition of human TK-10 cells at 10 uM incubated for 48 hrs by sulforhodamine B assay relative to control
HL-60(TB) = test: Growth inhibition of human HL-60(TB) cells at 10 uM incubated for 48 hrs by sulforhodamine B assay relative to control
M14 = test: Growth inhibition of human M14 cells at 10 uM incubated for 48 hrs by sulforhodamine B assay relative to control
ACHN = test: Growth inhibition of human ACHN cells at 10 uM incubated for 48 hrs by sulforhodamine B assay relative to control
SNB-19 = test: Growth inhibition of human SNB-19 cells at 10 uM incubated for 48 hrs by sulforhodamine B assay relative to control
IGROV-1 = test: Growth inhibition of human IGROV-1 cells at 10 uM incubated for 48 hrs by sulforhodamine B assay relative to control
SN12C = test: Growth inhibition of human SN12C cells at 10 uM incubated for 48 hrs by sulforhodamine B assay relative to control
UACC-62 = test: Growth inhibition of human UACC-62 cells at 10 uM incubated for 48 hrs by sulforhodamine B assay relative to control
OVCAR-5 = test: Growth inhibition of human OVCAR-5 cells at 10 uM incubated for 48 hrs by sulforhodamine B assay relative to control
NCI-H226 = test: Growth inhibition of human NCI-H226 cells at 10 uM incubated for 48 hrs by sulforhodamine B assay relative to control
T47D = test: Growth inhibition of human T47D cells at 10 uM incubated for 48 hrs by sulforhodamine B assay relative to control
CCRF-CEM = test: Growth inhibition of human CCRF-CEM cells at 10 uM incubated for 48 hrs by sulforhodamine B assay relative to control
RPMI-8226 = test: Growth inhibition of human RPMI-8226 cells at 10 uM incubated for 48 hrs by sulforhodamine B assay relative to control
UO-31 = test: Growth inhibition of human UO-31 cells at 10 uM incubated for 48 hrs by sulforhodamine B assay relative to control
PC-3 = test: Growth inhibition of human PC-3 cells at 10 uM incubated for 48 hrs by sulforhodamine B assay relative to control
RXF 393 = test: Growth inhibition of human RXF 393 cells at 10 uM incubated for 48 hrs by sulforhodamine B assay relative to control
SK-MEL-5 = test: Growth inhibition of human SK-MEL-5 cells at 10 uM incubated for 48 hrs by sulforhodamine B assay relative to control
NCI-H460 = test: Growth inhibition of human NCI-H460 cells at 10 uM incubated for 48 hrs by sulforhodamine B assay relative to control
HCT-116 = test: Growth inhibition of human HCT-116 cells at 10 uM incubated for 48 hrs by sulforhodamine B assay relative to control
HOP-62 = test: Growth inhibition of human HOP-62 cells at 10 uM incubated for 48 hrs by sulforhodamine B assay relative to control
CAKI-1 = test: Growth inhibition of human CAKI-1 cells at 10 uM incubated for 48 hrs by sulforhodamine B assay relative to control
NCI-H322M = test: Growth inhibition of human NCI-H322M cells at 10 uM incubated for 48 hrs by sulforhodamine B assay relative to control
HCC 2998 = test: Growth inhibition of human HCC 2998 cells at 10 uM incubated for 48 hrs by sulforhodamine B assay relative to control
Malme-3M = test: Growth inhibition of human Malme-3M cells at 10 uM incubated for 48 hrs by sulforhodamine B assay relative to control
SK-OV-3 = test: Growth inhibition of human SK-OV-3 cells at 10 uM incubated for 48 hrs by sulforhodamine B assay relative to control
HCT-15 = test: Growth inhibition of human HCT-15 cells at 10 uM incubated for 48 hrs by sulforhodamine B assay relative to control
MDA-MB-231 = test: Growth inhibition of human MDA-MB-231 cells at 10 uM incubated for 48 hrs by sulforhodamine B assay relative to control
U-251 = test: Growth inhibition of human U-251 cells at 10 uM incubated for 48 hrs by sulforhodamine B assay relative to control
MDA-MB-435 = test: Growth inhibition of human MDA-MB-435 cells at 10 uM incubated for 48 hrs by sulforhodamine B assay relative to control
MOLT-4 = test: Growth inhibition of human MOLT-4 cells at 10 uM incubated for 48 hrs by sulforhodamine B assay relative to control
A549 = test: Growth inhibition of human A549/ATCC cells at 10 uM incubated for 48 hrs by sulforhodamine B assay relative to control
SK-MEL-28 = test: Growth inhibition of human SK-MEL-28 cells at 10 uM incubated for 48 hrs by sulforhodamine B assay relative to control
HT-29 = test: Growth inhibition of human HT-29 cells at 10 uM incubated for 48 hrs by sulforhodamine B assay relative to control
MDA-MB-468 = test: Growth inhibition of human MDA-MB-468 cells at 10 uM incubated for 48 hrs by sulforhodamine B assay relative to control
NCI-H522 = test: Growth inhibition of human NCI-H522 cells at 10 uM incubated for 48 hrs by sulforhodamine B assay relative to control
HOP-92 = test: Growth inhibition of human HOP-92 cells at 10 uM incubated for 48 hrs by sulforhodamine B assay relative to control
DU-145 = test: Growth inhibition of human DU-145 cells at 10 uM incubated for 48 hrs by sulforhodamine B assay relative to control
SNB-75 = test: Growth inhibition of human SNB-75 cells at 10 uM incubated for 48 hrs by sulforhodamine B assay relative to control
OVCAR-8 = test: Growth inhibition of human OVCAR-8 cells at 10 uM incubated for 48 hrs by sulforhodamine B assay relative to control

Q: Which inhibition of growth at 10 µM (SW-620) does the source give for O=C(CN(c1ccccc1)c1ccccc1)Nc1ccc(-c2nc3ccccc3s2)cc1 here?
A: -3.33%

Q: And the inhibition of growth at 10 µM (NCI/ADR-RES)?
A: -9.25%

Q: What about the inhibition of growth at 10 µM (BT-549) of the same molecule?
A: -12.2%

Q: What about the inhibition of growth at 10 µM (KM12) of the same molecule?
A: -6.94%

Q: And the inhibition of growth at 10 µM (K562)?
A: 3.89%

Q: And the inhibition of growth at 10 µM (TK-10)?
A: -2.02%

Q: And the inhibition of growth at 10 µM (HL-60(TB))?
A: -1.45%

Q: And the inhibition of growth at 10 µM (M14)?
A: -10.1%

Q: And the inhibition of growth at 10 µM (ACHN)?
A: -13.4%

Q: And the inhibition of growth at 10 µM (SNB-19)?
A: -7.16%

Q: What about the inhibition of growth at 10 µM (IGROV-1) of the same molecule?
A: 4.71%

Q: What about the inhibition of growth at 10 µM (SN12C) of the same molecule?
A: -3.04%

Q: What about the inhibition of growth at 10 µM (UACC-62) of the same molecule?
A: 2.85%

Q: What about the inhibition of growth at 10 µM (OVCAR-5) of the same molecule?
A: -6.47%

Q: And the inhibition of growth at 10 µM (NCI-H226)?
A: -5.48%

Q: What about the inhibition of growth at 10 µM (T47D) of the same molecule?
A: 13.6%

Q: What about the inhibition of growth at 10 µM (CCRF-CEM) of the same molecule?
A: -6.75%

Q: What about the inhibition of growth at 10 µM (RPMI-8226) of the same molecule?
A: -15.6%

Q: And the inhibition of growth at 10 µM (UO-31)?
A: 3.62%

Q: And the inhibition of growth at 10 µM (PC-3)?
A: 2.35%

Q: What about the inhibition of growth at 10 µM (RXF 393) of the same molecule?
A: -5.12%

Q: What about the inhibition of growth at 10 µM (SK-MEL-5) of the same molecule?
A: 7.11%

Q: What about the inhibition of growth at 10 µM (NCI-H460) of the same molecule?
A: -0.29%

Q: What about the inhibition of growth at 10 µM (HCT-116) of the same molecule?
A: -5.38%

Q: What about the inhibition of growth at 10 µM (HOP-62) of the same molecule?
A: -5.28%

Q: What about the inhibition of growth at 10 µM (CAKI-1) of the same molecule?
A: 0.37%

Q: What about the inhibition of growth at 10 µM (NCI-H322M) of the same molecule?
A: -4.73%

Q: What about the inhibition of growth at 10 µM (HCC 2998) of the same molecule?
A: -1.62%

Q: And the inhibition of growth at 10 µM (Malme-3M)?
A: -3.98%

Q: What about the inhibition of growth at 10 µM (SK-OV-3) of the same molecule?
A: -11.4%

Q: And the inhibition of growth at 10 µM (HCT-15)?
A: -8.11%

Q: What about the inhibition of growth at 10 µM (MDA-MB-231) of the same molecule?
A: -3.01%

Q: What about the inhibition of growth at 10 µM (U-251) of the same molecule?
A: -5.92%

Q: And the inhibition of growth at 10 µM (MDA-MB-435)?
A: -4.11%

Q: And the inhibition of growth at 10 µM (MOLT-4)?
A: -4.25%

Q: And the inhibition of growth at 10 µM (A549)?
A: -5.7%

Q: What about the inhibition of growth at 10 µM (SK-MEL-28) of the same molecule?
A: -10.5%

Q: And the inhibition of growth at 10 µM (HT-29)?
A: -5.89%

Q: What about the inhibition of growth at 10 µM (MDA-MB-468) of the same molecule?
A: 61.3%

Q: And the inhibition of growth at 10 µM (NCI-H522)?
A: 2.41%

Q: What about the inhibition of growth at 10 µM (HOP-92) of the same molecule?
A: 11.2%

Q: And the inhibition of growth at 10 µM (DU-145)?
A: -5.31%

Q: And the inhibition of growth at 10 µM (SNB-75)?
A: 2.08%

Q: And the inhibition of growth at 10 µM (OVCAR-8)?
A: -0.82%

Reference: ChEMBL document CHEMBL4765227, “Hit to lead optimization of a series of N-[4-(1,3-benzothiazol-2-yl)phenyl]acetamides as monoacylglycerol lipase inhibitors with potential anticancer activity” (Eur J Med Chem, 2016)
